These are literature values, as cited in patent US20140140997A1, “Methods of Treating Retroviral Infections in Felines” (CytoDyn Inc., priority 2011, published 2014).

Data set [1] relates to CD11a binding to ICAM-1. The settings on record: Weitz-Schmidt et al. 2004; Welzenbach et al. 2002.
Data set [2] concerns LFA-1. The note with it: Wang et al. 2009; Almog 2003.

Turning to `CC[C@H](C)C(=O)O[C@H]1C[C@@H](C)C=C2C=C[C@H](C)[C@H](CC[C@@H]3C[C@H](CC(=O)NC)N(Cc4ccc(O)c(OC)c4)C(=O)O3)[C@H]21` [LFA878], in data set [1], the “prevention of CD11a binding to ICAM-1” value is recorded as “preventing the ability of CD11a to bind to ICAM-1”.

With `O=C(NCc1cccc(O)c1)c1cc(Cl)c(C(=O)N[C@@H](CNC(=O)c2cc(O)cc(O)c2)C(=O)O)c(Cl)c1` [XVA143], in data set [1], the “prevention of CD11a binding to ICAM-1” value was “preventing the ability of CD11a to bind to ICAM-1”. Turning to `CCC(C)(C)C(=O)O[C@H]1C[C@@H](C)C=C2C=C[C@H](C)[C@H](CC[C@@H]3C[C@@H](O)CC(=O)O3)[C@H]21` [simvastatin, (1S,3R,7S,8S,8aR)-8-(2-((2R,4R)-4-hydroxy-6-oxotetrahydro-2H-pyran-2-yl)ethyl)-3,7-dimethyl-1,2,3,7,8,8a-hexahydronaphthalen-1-yl 2,2-dimethylbutanoate], the “inhibition of LFA-1 activation” value in data set [2] was “inhibit LFA-1 activation”. `CC[C@H](C)C(=O)O[C@H]1C[C@@H](C)C=C2C=C[C@H](C)[C@H](CC[C@@H]3C[C@@H](O)CC(=O)O3)[C@H]21` [Lovastatin, (1S,3R,7S,8S,8aR)-8-{2-[(2R,4R)-4-hydroxy-6-oxooxan-2-yl]ethyl}-3,7-dimethyl-1,2,3,7,8,8a-hexahydronaphthalen-1-yl (2S)-2-methylbutanoate]: in data set [2], the “inhibition of LFA-1 activation” value is “inhibit LFA-1 activation”.
